This is an account of results in patent publication US8399462B2, “JNK modulators” (Roche Palo Alto LLC, priority 2006, dated 2013).

Each structure is given as a SMILES string. Several values for one entry are separate records, joined by “and”; a condition that tells them apart may be missing. Equal values may be shown once. Some results are limits rather than exact numbers.

What is called melting point is the temperature of the solid-liquid transition. In turn, `COCCOCc1cccc2c1ccn2-c1ccnc(N[C@H]2CC[C@H](NC(C)=O)CC2)n1` [Compound 140, N-(4-{4-[4-(2-methoxy-ethoxymethyl)-indol-1-yl]-pyrimidin-2-ylamino}-cyclohexyl)-acetamide] had a melting point of 177 to 177.8 °C.
For `CN(c1cccc2c1ccn2-c1ccnc(N[C@H]2CC[C@H](C(C)(C)O)CC2)n1)S(C)(=O)=O` [Compound 164, N-(1-{2-[4-(1-hydroxy-1-methyl-ethyl)-cyclo-hexylamino]-pyrimidin-4-yl}-1H-indol-4-yl)-N-methyl-methanesulfonamide], the melting point was 216.5 to 217.5 °C.
To `CS(=O)(=O)CCCOc1cccc2c1ccn2-c1ccnc(N[C@H]2CC[C@H](NS(=O)(=O)CCCN3CCOCC3)CC2)n1` [Compound 280, 3-morpholin-4-yl-pro-pane-1-sulfonic acid (4-{4-[4-(3-methane-sulfonyl-propoxy)-indol-1-yl]-pyrimidin-2-yl-amino}-cyclohexyl)-amide] belongs 174 to 179.3 °C; to `CC(C)(O)c1cccc2c1ccn2-c1ccnc(N[C@H]2CC[C@H](C(=O)N3CCCC3)CC2)n1` [Compound 116, (4-{4-[4-(1-hydroxy-1-methylethyl)-indol-1-yl]-pyrimidin-2-yl-amino}-cyclohexyl)-pyrrolidin-1-yl-methanone], 207.8 to 209.8 °C.
Turning to `COCCCOc1cccc2c1ccn2-c1ccnc(N[C@H]2CC[C@H](NS(C)(=O)=O)CC2)n1` [Compound 236, N-(4-{4-[4-(3-methoxy-propoxy)-indol-1-yl]-pyrimidin-2-ylamino}-cyclohexyl)-methanesulfonamide], the melting point is 207 to 208 °C.
Next, `CN([C@H]1CC[C@H](Nc2nccc(-c3noc4c(OCCCS(C)(=O)=O)cccc34)n2)CC1)S(C)(=O)=O` [Compound 310, N-(4-{4-[7-(3-methane-sulfonyl-propoxy)-benzo[d]isoxazol-3-yl]-pyrimidin-2-ylamino}-cyclohexyl)-N-methyl-methanesulfonamide]: 213.5 to 214.2 °C; `CC1(C)OC[C@@H](COc2cccc3c2cnn3-c2ccnc(N[C@H]3CC[C@H](C(=O)N4CCCC4)CC3)n2)O1` (stereo in doubt) [Compound 127, (4-{4-[4-(2,2-dimethyl-[1,3]dioxolan-4-yl-methoxy)-indazol-1-yl]-pyrimidin-2-ylamino}-cyclohexyl)-pyrrolidin-1-ylmethanone]: 196 to 198 °C.
As to `COc1cccc2c1cnn2-c1ccnc(N[C@H]2CC[C@H](C(=O)N(C)C)CC2)n1` [Compound 105, 4-[4-(4-methoxyindazol-1-yl)-pyrimidin-2-ylamino]-cyclo-hexanecarboxylic acid dimethylamide], the melting point lay within 278.8 to 280 °C.
Next, `C[C@@H]1CC[C@@H](C)N1C(=O)[C@H]1CC[C@H](Nc2nccc(-n3ncc4c(OCCCS(N)(=O)=O)cccc43)n2)CC1` (stereo in doubt) [Compound 271, 3-(1-{2-[4-(2,5-di-methyl-pyrrolidine-1-carbonyl)-cyclohexyl-amino]-pyrimidin-4-yl}-1H-indazol4-yloxy)-propane-1-sulfonic acid amide]: 230 to 231 °C; `CS(=O)(=O)CCCOc1cccc2c1ccn2-c1ccnc(N[C@H]2CC[C@H](NS(=O)(=O)c3cccs3)CC2)n1` [Compound 294, Thiophene-2-sulfonic-acid (4-{4-[4-(3-methane-sulfonyl-propoxy)-indol-1-yl]-pyrimidin-2-ylamino}-cyclohexyl)-amide]: 226 to 227 °C.
Next, `CS(=O)(=O)CCCOc1cccc2c1ccn2-c1ccnc(N[C@H]2CC[C@H](C(=O)N3CCC(CN)CC3)CC2)n1` [Compound 304, (4-aminomethyl-piperidin-1-yl)-(4-{4-[4-(3-methanesulfonyl-propoxy)-indol-1-yl]-pyrimidin-2-ylamino}-cyclohexyl)-methanone]: 124.1 to 126.1 °C and 124 to 126 °C.
To `Oc1ccc2c(ccn2-c2ccnc(N[C@H]3CC[C@H](O)CC3)n2)c1` [Example 9, trans-1-[2-(4-Hydroxycyclohexylamino)-pyrimidin-4-yl]-1H-indol-5-ol] belongs 246.5 to 248 °C.
On to `C[C@@H]1CCCN1C(=O)[C@H]1CC[C@H](Nc2nccc(-n3ncc4c(OCCCS(N)(=O)=O)cccc43)n2)CC1` (stereo in doubt) [Compound 272, 3-(1-{2-[4-(2-methyl-pyrrolidine-1-carbonyl)-cyclohexylamino]-pyrimidin-4-yl}-1H-indazol4-yloxy)-propane-1-sulfonic acid amide], for which the melting point fell in the range of 230 to 231 °C.
`CNC(=O)COc1cccc2c1cnn2-c1ccnc(N[C@H]2CC[C@H](O)CC2)n1` [Compound 112, 2-{1-[2-(4-hydroxy-cyclohexylamino)-pyrimidin-4-yl]-1H-indazol-4-yloxy}-N-methyl-acetamide] returned a melting point of 226 to 227 °C.
With `CC1(C)OC[C@@H](COc2cccc3c2cnn3-c2ccnc(N[C@H]3CC[C@H](NS(C)(=O)=O)CC3)n2)O1` (stereo in doubt) [Compound 128, N-(4-{4-[4-(2,2-di-methyl[1,3]dioxolan-4-ylmethoxy)-indazol-1-yl]-pyrimidin-2-yl-amino}-cyclohexyl)-methanesulfonamide], the melting point lay in the range of 247 to 247.8 °C.
To `CS(=O)(=O)N[C@H]1CC[C@H](Nc2nccc(-n3ccc4c(N5CCC(O)C5)cccc43)n2)CC1` (stereo partly drawn) [Compound 312, N-(4-{4-[4-(3-hydroxy-pyrrolidin-1-yl)-indol-1-yl]-pyrimidin-2-yl-amino}-cyclohexyl)-methanesulfonamide] belongs 190.1 to 200.5 °C.
Next, `CS(=O)(=O)C[C@H](O)COc1cccc2c1cnn2-c1ccnc(N[C@H]2CC[C@H](O)CC2)n1` (stereo in doubt) [Compound 198, 4-{4-[4-(2-hydroxy-3-methanesulfonyl-propoxy)-indazol-1-yl]-pyrimidin-2-ylamino}-cyclohexanol]: 211 to 212 °C.
Take `CS(=O)(=O)CCCOc1cccc2c1ccn2-c1ccnc(N[C@H]2CC[C@H](CN3CC[C@@H](O)C3)CC2)n1` [Compound 317, 1-(4-{4-[4-(3-methanesulfonyl-propoxy)-indol-1-yl]-pyirmidin-2-ylamino}-cyclohexylmethyl)-pyrrolidin-3-ol]: the melting point was in the range of 139.6 to 150.3 °C.
Next, `N#CCc1cccc2c1ccn2-c1ccnc(N[C@H]2CC[C@H](C(=O)N3CCCC3)CC2)n1` [Compound 114, (1-{2-[4-(pyrrolidino-1-carbonyl)-cyclohexyl-amino]-pyrimidin-4-yl}-1H-indol-4-yl)-acetonitrile]: 136 to 137.5 °C.
On to `CCOC(=O)[C@H]1CC[C@H](Nc2nccc(-n3ncc4c(OCCCS(N)(=O)=O)cccc43)n2)CC1` [Compound 260, 4-{4-[4-(3-sulfamoyl-propoxy)-indazol-1-yl]-pyrimidin-2-ylamino}-cyclohexanecarboxylic acid ethyl ester], for which the melting point lay in the range of 166 to 167 °C.
As to `CNC(=O)COc1cccc2c1cnn2-c1ccnc(N[C@H]2CC[C@H](C(=O)N(C)C)CC2)n1` [Compound 124, 4-[4-(4-methylcarba-moylmethoxy-indazol-1-yl)-pyrimidin-2-yl-amino]-cyclohexane-carboxylic acid dimethylamide], the melting point was in the range of 183 to 185 °C.
To `CS(=O)(=O)N[C@H]1CC[C@H](Nc2nccc(-n3ccc4c(C5(O)CCS(=O)(=O)CC5)cccc43)n2)CC1` [Compound 230, N-(4-{4-[4-(4-hydroxy-1,1-dioxohexahydro-thiopyran-4-yl)-indol-1-yl]-pyrimidin-2-yl-amino}-cyclohexyl)-methanesulfonamide] belongs above 300 °C; to `COCCOc1cccc2c1ccn2-c1ccnc(N[C@H]2CC[C@H](NS(C)(=O)=O)CC2)n1` [Compound 221, N-(4-{4-[4-(2-methoxy-ethoxy)-indol-1-yl]-pyrimidin-2-ylamino}-cyclohexyl)-methanesulfonamide], 203 to 205 °C.
As for `COC1CCCN(C(=O)[C@H]2CC[C@H](Nc3nccc(-n4ccc5c(OCCCS(C)(=O)=O)cccc54)n3)CC2)C1` (stereo partly drawn) [Compound 263, (4-{4-[4-(3-methane-sulfonyl-propoxy)-indol-1-yl]-pyrimidin-2-ylamino}-cyclohexyl)-(3-methoxy-piperidin-1-yl)-methanone], the melting point fell in the range of 121 to 122 °C.
Next, `CS(=O)(=O)CCCOc1cccc2c1cnn2-c1ccnc(N[C@H]2CC[C@H](C(=O)N3CCCC3)CC2)n1` [Compound 155, (4-{4-[4-(3-methane-sulfonyl-propoxy)-indazol-1-yl]-pyrimidin-2-ylamino}-cyclohexyl)-pyrrolidin-1-ylmethanone]: 183.4 to 184.5 °C; `COCc1cccc2c1ccn2-c1ccnc(N[C@H]2CC[C@H](O)CC2)n1` [Compound 102, 4-[4-(4-methoxymethyl-indol-1-yl)-pyrimidin-2-ylamino]-cyclohexanol]: 134.8 to 137.3 °C; `COC(=O)c1cccc2c1ccn2-c1ccnc(N[C@H]2CC[C@H](O)CC2)n1` [Compound 37, 1-[2-(4-hydroxycyclo-hexylamino)-pyrimidin-4-yl]-1H-indole-4-carboxylic acid methyl ester]: 206.7 to 208.3 °C.
Next, `COC1CN(C(=O)[C@H]2CC[C@H](Nc3nccc(-n4ccc5c(OCCCS(C)(=O)=O)cccc54)n3)CC2)C1` [Compound 274, (4-{4-[4-(3-methane-sulfonyl-propoxy)-indol-1-yl]-pyrimidin-2-ylamino}-cyclohexyl)-(3-methoxy-azetidin-1-yl)-methanone]: 162 to 163 °C; `CC(=O)NCc1cccc2c1ccn2-c1ccnc(N[C@H]2CC[C@H](N(C)S(C)(=O)=O)CC2)n1` [Compound 205, N-(1-{2-[4-(methane-sulfonyl-methylamino)-cyclohexylamino]-pyrimidin-4-yl}-1H-indol-4-ylmethyl)-acetamide]: 210.5 to 212 °C.
Take `CC(O)CCNC(=O)[C@H]1CC[C@H](Nc2nccc(-n3ncc4ccccc43)n2)CC1` (stereo partly drawn) [Example 5, trans-4-(4-Indazol-1-ylpyrimidin-2-ylamino)-cyclohexane-carboxylic acid (3-hydroxy-butyl)-amide]: the melting point was in the range of 248.5 to 252.5 °C.
